Measurements published in ChEMBL document CHEMBL1806490, “Benzisothiazolones as modulators of macrophage migration inhibitory factor” (Bioorg Med Chem Lett, 2011).

Legend:
[1] = target: T1, Macrophage migration inhibitory factor (Homo sapiens, UniProt P14174); assay: Inhibition of human recombinant MIF tautomerase activity using 4-hydroxyphenylpyruvate as substrate
T1 sequence (P14174 whole entry): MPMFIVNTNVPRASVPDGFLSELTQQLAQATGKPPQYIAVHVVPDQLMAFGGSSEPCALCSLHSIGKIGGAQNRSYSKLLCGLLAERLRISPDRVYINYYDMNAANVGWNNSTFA

[2] = target: T2, MIF/CD74 (Macrophage migration inhibitory factor and HLA-DR antigens-associated invariant chain) (Homo sapiens) (UniProt P14174+P04233); details: 78 nM
Description: Inhibition of human recombinant biotinylated MIF/CD74 ectodomain interaction at 78 nM by streptavidin alkaline phosphatase reporter system

[3] = target: T2, MIF/CD74 (Macrophage migration inhibitory factor and HLA-DR antigens-associated invariant chain) (Homo sapiens); details: 4 nM
Description: Inhibition of human recombinant biotinylated MIF/CD74 ectodomain interaction at 4 nM by streptavidin alkaline phosphatase reporter system

IC50 [1]	Compound	further results
5.6 µM	O=c1c2ccc(F)c(F)c2sn1-c1ccc(Cl)cc1	–
2.4 µM	COCc1cccc(-n2sc3cc(F)ccc3c2=O)c1	–
6.6 µM	O=c1c2cccc(Cl)c2sn1-c1ccc(Cl)cc1	–
6.2 µM	O=c1c2cc([N+](=O)[O-])ccc2sn1-c1ccc(Cl)cc1	–
–	N#Cc1ccc(-n2sc3cc(F)ccc3c2=O)cc1	inhibition [2]: 49%
4.9 µM	O=c1c2cc(F)c(F)cc2sn1-c1ccc(Cl)cc1	–
2.8 µM	O=c1c2cccc(F)c2sn1-c1ccc(Cl)cc1	–
2.8 µM	COc1cccc(-n2sc3ccc(F)cc3c2=O)c1	–
5.6 µM	O=c1c2cc(F)ccc2sn1-c1ccc(Cl)cc1	–
19 µM	N#Cc1ccc2sn(-c3ccc(Cl)cc3)c(=O)c2c1	–
2.3 µM	CC(=O)OCc1cccc(-n2sc3cc(F)ccc3c2=O)c1	–
25 µM	COc1cccc(-n2sc3cc(F)ccc3c2=O)c1	–
5 µM	O=c1c2ccc(F)cc2sn1-c1cccc(Cl)c1	–
7.9 µM	O=c1c2cc(Br)ccc2sn1-c1ccc(Cl)cc1	–
11 µM	O=c1c2ccc(Br)cc2sn1-c1ccc(Cl)cc1	–
–	O=c1c2ccc(O)cc2sn1-c1ccc(Cl)cc1	inhibition [3]: 23%
3.1 µM	N#Cc1ccc2c(=O)n(-c3ccc(Cl)cc3)sc2c1	–
8 µM	COc1cccc(-n2sc3c(F)cccc3c2=O)c1	–
6.5 µM	COc1ccc(-n2sc3ccc(F)cc3c2=O)cc1	–
5.9 µM	O=c1c2cccc(F)c2sn1-c1cccc(O)c1	–
